Measurements as given in patent US7067500B2, “Betaines as adjuvants to susceptibility testing and antimicrobial therapy” (priority 1997, dated 2006).
“And” between values parts separate entries of the source, which are not always exact repeats. Identical values can stand only once. “Also recorded” adds a separate entry of the source. Counter-ions that a name gives are not always drawn.

Legend:
[1] = system: M. tuberculosis isolates ATCC 27294 and 571/573-BAL; experiment: Processing in CB-18 vs. planting in CB-18, BACTEC 12B growth curves
[2] = system: M. tuberculosis complex isolates ATCC 27294 and 571/573-BAL; experiment: CB-18 titration, BACTEC 12B growth curves; format: cell-based, Mycobacterium tuberculosis; conditions: for CB-18 concentration at which growth was completely shut down / CB-18 concentration at which growth was impacted to a minor degree: absence of antibiotics
[3] = system: M. tuberculosis isolates ATCC 27294 and 571/573-BAL; experiment: Mycobacterial susceptibility testing (proportion method criteria) with CB-18 and P-cax; format: cell-based, Mycobacterium tuberculosis
[4] = system: M. tuberculosis isolates ATCC 27294 and 571/573-BAL; experiment: CB-18 and TMA-18 comparison, BACTEC 12B growth curves; format: cell-based, Mycobacterium tuberculosis
Procedure: If the mechanism of CB-18's action was similar to that of the quaternary salts (i.e., generally deleterious), then some delay would be anticipated. For example, if the CB-18 effect was a consequence of the surface active property of the detergent, then disruption of cellular function would not only have nonspecific long term consequences, but would also be independent of the isolate. In an effort to examine the similarity in the mechanism, CB-18 was assayed in parallel with trimethyloctadecylammonium bromide (TMA-18 (Aldrich, Milwaukee, Wis., Cat.# 35,924-6): made as a 100× stock in 1:1, water:isopropanol similar to that described for CB-18 in Example 1). The experimental design is outlined in FIG. 6.
In this experiment both ATCC 27294 and 571/573-BAL were cultivated on 7H11-selective media, and then serially diluted in NALC/citrate to 10,000×. The planting solution (i.e., the final dilution (50,000×)) was manufactured by diluting into either buffer, 0.5 mM CB-18, or 0.1 mM TMA-18 (all concentrations represent the final detergent concentration in the planting solution). […] The final concentration of CB-18 during incubation was approximately 17 μg/ml. The final concentration of TMA-18 during incubation was approximately 3.4 μg/ml. […] FIGS. 7A–7C show one experiment wherein ATCC 27294 cells were planted in the different solutions described above, and FIGS. 8A–8C show a parallel experiment wherein 571/573-BAL cells were planted in the same series.

[5] = system: M. avium complex isolates ATCC 25291 and 802-BAL; experiment: CB-18 titration, BACTEC 12B growth curves; format: cell-based; conditions: MAC isolate 802-BAL; CB-18 alone (7–27 μg/ml tested)
[6] = system: M. tuberculosis isolate 571/573-BAL; experiment: Planting in lecithin at low inocula, BACTEC 12B growth curves; format: cell-based, Mycobacterium tuberculosis; conditions: CB-18 (17 μg/ml) combined with P/caz; inocula 165±54, 33±11 and 8±3 cfu
Excerpt: In this experiment the 571/573-BAL isolate was cultivated on 7H11-selective media, serially diluted in NALC/citrate to approximately 1,000×. In an attempt to examine how the inoculum impacted the results of this assay three different stocks were manufactured, one series in buffer and one series in CB-18. […] The planting solutions were manufactured by mixing these three stocks 1:1 with either buffer or a buffered solution of lecithin (Sigma, St. Louis, Mo.; Cat.#: P 5394 (7.5% lecithin was made up as a 100× concentrate in 100% ethanol (3 grams in 40 mls) and diluted in the Tris buffer of Example 1 immediately prior to use)). The final dilutions of three different planting solutions were approximately 5000×, 25,000×, and 100,000×. The final concentration of CB-18 and lecithin in the appropriate planting solutions was approximately 0.5 mM. […] The final concentration of both lecithin and CB-18 during incubation was approximately 17 μg/ml.
Aliquots of the three stocks (i.e., 2,500×, 12,500× and 50,000×) were also taken for quantitative culture by plating on 7H10 plates (Becton Dickinson, Cockeysville, Md.). […] FIG. 5A presents the 5,000× series planted in either buffer or buffer containing lecithin, and FIG. 5B presents the 5,000× series planted in CB-18 or CB-18 combined with lecithin. FIG. 5C presents the 25,000× series planted in either buffer or buffer containing lecithin, and FIG. 5D presents the 25,000× series planted in CB-18 or CB-18 combined with lecithin. FIG. 5E presents the 100,000× series planted in either buffer or buffer containing lecithin, and FIG. 5F presents the 100,000× series planted in CB-18 or CB-18 combined with lecithin.

[7] = system: M. tuberculosis isolates (Table 8); experiment: MTB isolates vs. antibiotic screen in the presence and absence of CB-18; conditions: CB-18 17 μg/ml
[8] = system: M. tuberculosis isolates ATCC 27294 and 571/573-BAL; experiment: CB-18 vs. EDTA, BACTEC 12B growth curves; format: cell-based, Mycobacterium tuberculosis
[9] = system: M. tuberculosis isolate 571/573-BAL; experiment: Detergent screen for induced susceptibility, BACTEC 12B growth curves; format: cell-based, Mycobacterium tuberculosis; conditions: for effect on growth characteristics: 571/573-BAL
[10] = ATCC 27294, presence of antibiotics

SMILES: CCCCCCCCCCCCCCCCCC[N+](C)(C)CCCC(=O)[O-] [CB-18, N-(3-carboxypropyl)-N,N-dimethyl-1-octadecanaminium, inner salt]
- effect on growth characteristics ([1]; 571/573-BAL, 90 minute exposure to CB-18 at 383 μg/ml, planted in buffer): no apparent effect on growth characteristics
- CB-18 concentration in the culture bottle at which growth was unimpeded ([1]; 571/573-BAL, processed in CB-18, then diluted): < 1 µg/mL
- impact on growth characteristics ([1]; ATCC 27294, processed in CB-18 (383 μg/ml) and/or planted in CB-18 (17 μg/ml final), PANTA or P/caz): generally unaffected
- post antibiotic effect ([1]; cells processed in CB-18 but planted in buffer): no post antibiotic effect; also recorded: no “post antibiotic effect”
- CB-18 concentration at which the isolate was viable ([2]; 571/573-BAL, CB-18 alone): 13 µg/mL
- CB-18 concentration at which growth was completely shut down ([2]; 571/573-BAL): 27 µg/mL
- CB-18 concentration at which growth was impacted to a minor degree ([2]; 571/573-BAL): 13 µg/mL
- CB-18 concentration at which growth was absent ([2]; 571/573-BAL, presence of antibiotics): 13 µg/mL
- CB-18 concentration at which growth was completely shut down ([2]; ATCC 27294): 54 µg/mL
- CB-18 concentration at which growth was impacted to a minor degree ([2]; ATCC 27294): 27 µg/mL
- CB-18 concentration at which growth was affected to a minor degree [2, 10]: 13 µg/mL
- CB-18 concentration at which growth was nonexistent [2, 10]: 27 µg/mL
- CB-18 concentration causing no alteration in growth ([2]; ATCC 27294 and 571/573-BAL, absence of antibiotics (FIGS. 10A and 11A)): 3 to 7 µg/mL
- CB-18 concentration at which the isolate would have been reported as susceptible ([3]; 571/573-BAL, 10×-dilution (111,000 ± 17,900 cfu), in the presence of P-cax): 60 µg/mL and 30 µg/mL
- CB-18 concentration at which the isolate would have been reported as susceptible ([3]; 571/573-BAL, 100×-dilution (11,100 ± 1,790 cfu), in the presence of P-cax): 15 µg/mL
- CB-18 concentration at which the isolate would have been reported as susceptible ([3]; ATCC 27294, 10×-dilution (62,800 ± 5,700 cfu), in the presence of P-cax): 60 µg/mL
- CB-18 concentration at which the isolate would have been deemed susceptible ([3]; ATCC 27294, 100×-dilution (6,280 ± 570 cfu), in the presence of P-cax): 30 µg/mL
- growth of isolates ([3]; both isolates, high input (>1×10^5 cfu), 30 μg/ml CB-18): grew unimpeded during the first week
- effect on growth ([4]; 571/573-BAL, 17 μg/ml CB-18, R.F., PANTA and P/cax): delays in all conditions became obvious
- effect on growth ([4]; 571/573-BAL, 17 μg/ml CB-18 with P/cax): dramatic delay
- effect on growth ([4]; ATCC 27294, 17 μg/ml CB-18 in PANTA alone): minor delays
- effect on growth ([4]; ATCC 27294, 17 μg/ml CB-18 with P/cax): significant delays
- CB-18 concentration at which viability falls off [5]: not affected at the test concentrations; also recorded: Viability is unaffected at levels tested
- culture result of replicate bottles [6]: negative
- CB-18 induced sensitivity to antibiotics tested ([7]; 040-TBR): affected by CB-18 to some degree; also recorded: Minor CB-18 induced sensitivity to most antibiotics
- effect of CB-18 on cax sensitivity (degree of exacerbation) ([7]; 040-TBR, P/cax): significantly affected by the presence of CB-18; also recorded: tested, however, cax sensitivity significantly
- CB-18 induced sensitivity to antibiotics tested ([7]; 52-96-BOL): affected by CB-18 to some degree; also recorded: Minor CB-18 induced sensitivity to most antibiotics
- effect of CB-18 on cax sensitivity (degree of exacerbation) ([7]; 52-96-BOL, P/cax): significantly affected by the presence of CB-18; also recorded: tested, however, cax sensitivity significantly
- CB-18 induced sensitivity to antibiotics tested ([7]; 57-96-BOL (MDR)): exacerbated in the presence of CB-18; also recorded: moderate CB-18 induced sensitivity to most
- effect of CB-18 on cax sensitivity ([7]; 061-TBR, P/cax): exacerbated by CB-18. Strain is INH resistant
- CB-18 induced sensitivity to antibiotics tested ([7]; 512-JHH): Minor CB-18 induced sensitivity to most antibiotics
- CB-18 induced sensitivity to antibiotics tested ([7]; 535-BAL): unaffected by CB-18 at this concentration
- effect of CB-18 on cax sensitivity ([7]; 535-BAL, P/cax): cax sensitivity was independent of CB-18
- CB-18 induced sensitivity to antibiotics tested ([7]; 538-JHH): Minor CB-18 induced sensitivity to most antibiotics
- CB-18 induced sensitivity to antibiotics tested ([7]; 571-BAL): remarkable induction of susceptibility for all drugs tested; also recorded: Dramatic CB-18 induced sensitivity
- CB-18 induced sensitivity to antibiotics tested ([7]; 573-BAL): remarkable induction of susceptibility for all drugs tested; also recorded: Dramatic CB-18 induced sensitivity
- effect of CB-18 on cax sensitivity ([7]; 896-BAL, P/cax): slightly exacerbated by CB-18. Strain is multi
- effect of CB-18 on cax sensitivity ([7]; ATCC 27294, P/cax (ceftriaxone 8 μg/ml)): minor delays; also recorded: exacerbated by CB-18
- CB-18 induced sensitivity to antibiotics tested ([7]; ATCC 27294, PANTA, P/caz, P/cfp, P/cax, P/cft): little or no difference; also recorded: Minimal, if any, CB-18 induced sensitivity to
- effect on growth ([8]; 571/573-BAL, CB-18 alone 17 μg/ml): suppressed
- effect on growth ([8]; ATCC 27294, CB-18 alone 17 μg/ml, absence of MgCl2): unaffected
- effect on growth ([8]; ATCC 27294 and 571/573-BAL, CB-18 17 μg/ml with P/cax): synergistically deleterious
- effect on growth characteristics ([9]; CB-18 (17 μg/ml) combined with antibiotics (PANTA, P/cax)): synergistically deleterious
- effect on growth characteristics ([9]; CB-18 alone (17 μg/ml, R.F.)): had an impact on the growth characteristics
- CB-18 effect in the methods of the invention ([9]; carboxybetaines tested): show the CB-18 effect
